The target in this experiment is SARS-CoV-2 E (2E) (Severe acute respiratory syndrome coronavirus 2, UniProt P0DTC4). It is filed as cell-based.

The source of these data is US20250026796A1 (priority 2022, published 2025).

Sequence of SARS-CoV-2 E (2E) (P0DTC4 whole entry, looked up): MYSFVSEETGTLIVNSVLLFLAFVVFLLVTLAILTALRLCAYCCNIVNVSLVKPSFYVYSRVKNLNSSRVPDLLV

MYSFVSEETGTLIVNSVL [MY18]: the “Relative fluorescent intensity of DND-189 dye (proton homeostasis)” value is recorded as “significantly restores the proton homeostasis”.
